Reference: PubChem BioAssay AID624167 (Sanford-Burnham Center for Chemical Genomics, 2012)
Calls of active or inactive are those of the source.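 Rule for the calls: active = mean IC50 for reducing PEG3 promoter reporter signal at or below a set limit, with IC50 above the limit in both counter screens; inactive = the rest, including counter screen hits.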

What was measured:
PEG-3 [1] = molecular target: PEG-3 (UniProt Q6IN02); experiment: inhibition of PEG-3 promoter-driven reporter – cell-based, HeLa, luciferase, CREF/GAPDH counter-screen panel, dose response (AID 624167); conditions: HeLa PEG-Prom luciferase reporter, overnight, CREF/GAPDH counter-screens, mean of runs
PEG-3 [2] = experiment: as above; conditions: HeLa PEG-Prom luciferase reporter, overnight, CREF/GAPDH counter-screens
[3] = run 1, dose range 1, individual replicate IC50 per panel
[4] = run 2, dose range 1, individual replicate IC50 per panel

PEG-3 (UniProt Q6IN02), sequence (Q6IN02 whole entry, looked up): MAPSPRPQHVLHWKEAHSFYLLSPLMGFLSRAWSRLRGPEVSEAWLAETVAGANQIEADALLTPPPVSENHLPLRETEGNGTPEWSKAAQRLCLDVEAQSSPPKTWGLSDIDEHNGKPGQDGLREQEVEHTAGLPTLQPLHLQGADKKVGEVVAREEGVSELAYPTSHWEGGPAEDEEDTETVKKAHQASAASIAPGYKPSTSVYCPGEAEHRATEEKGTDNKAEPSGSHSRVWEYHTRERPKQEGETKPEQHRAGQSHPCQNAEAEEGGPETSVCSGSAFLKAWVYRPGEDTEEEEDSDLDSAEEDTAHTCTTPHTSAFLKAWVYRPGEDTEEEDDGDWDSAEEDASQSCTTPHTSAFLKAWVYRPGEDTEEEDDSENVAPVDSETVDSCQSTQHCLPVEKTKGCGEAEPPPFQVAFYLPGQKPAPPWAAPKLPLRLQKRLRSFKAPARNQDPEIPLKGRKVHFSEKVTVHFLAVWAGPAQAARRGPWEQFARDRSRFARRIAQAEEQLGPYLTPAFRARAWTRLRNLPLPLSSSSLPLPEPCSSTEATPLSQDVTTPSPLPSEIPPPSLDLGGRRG

Compound	IC50 (PEG-3 [1])	IC50 (PEG-3 [2]; [3]) [µM]	IC50 (PEG-3 [2]; [4]) [µM]
COc1ccc(CN(C)C(=O)C(Cc2ccccc2)NC(=O)c2ccccc2)cc1F (stereo not given)	inactive	60.5	65.3
CCn1cc(CN2CCC(C(=O)Nc3cccc(-c4cccc(Cl)c4)c3)CC2)c(C)n1	14.5 µM	17.7	11.2
CC(C)(C)c1ccc(OCCCNCc2ccccc2)cc1	inactive	28.8	18.3
COc1cc(N=Nc2c(O)c3ccccc3[nH]c2=O)c(OC)cc1N=Nc1ccccc1	> 100 µM (inactive)	> 100	> 100
Cc1ccc(NC(=O)Nc2ccnc(-c3cccnc3)n2)cc1	> 100 µM (inactive)	> 100	> 100
CS(=O)(=O)c1ccc2nc(NC(=O)CCS(=O)(=O)c3ccccc3)sc2c1	inactive	> 100	18.9
CCOC(=O)c1sc2nc(CSc3ccccc3)nc(N3CCCN(C)CC3)c2c1C	19.4 µM	19.4	19.4
CCCc1nc2oc3c(NCCCN(C)C)ncnc3c2c2c1CCCC2	14.7 µM	19.5	9.84
COc1ccc(-c2oc3ccc(-c4cc(OC)c(OC)c(OC)c4)cc3c2C#Cc2ccccn2)cc1	12.2 µM	2.89	21.5
O=C(CN1CCN(Cc2ccccc2Cl)CC1)N=Nc1c(O)[nH]c2ccccc12	inactive	5.23	> 100
COc1cccc(-c2sc3ccc(OC)cc3c2-c2ccc(OCCN(C)C)cc2)c1	15.5 µM	15.7	15.2
CC(C)(C)c1ccc(CN2N=Nc3ccccc3S2(=O)=O)cc1	inactive	30.6	40.1
O=C(CSc1nc(Nc2ccccc2)nc(N2CCOCC2)n1)Nc1cc(Cl)ccc1O	13.7 µM	13	14.5
COc1ccc(NC(=O)Nc2nc(C(N)C3CCCCC3)cs2)cc1 (stereo not given)	20 µM	17.9	22.1
CN[C@H]1C[C@H]2c3[nH]c4ccc(-c5cccc(C)c5)cc4c3CCN2C[C@H]1[C@H](C)O	13.6 µM	18.8	8.37
Cc1noc(-c2ccc(Cl)cc2)c1C(=O)O/N=C(\N)c1ccc(C(C)(C)C)cc1	13.2 µM	17.3	9.17
CCCCCCCCCCCCCCCC(O)C[N+](C)(C)CCO (stereo not given)	13 µM	17.7	8.35
O=C(Nc1ccc(S(=O)(=O)NC2=NCCCCC2)cc1)c1ccc([N+](=O)[O-])s1	15.4 µM	19.2	11.7
COc1ccc(-c2ccc3[nH]c4c(c3c2)CCN2C[C@@H]([C@H](C)O)[C@@H](N(C)C(=O)Nc3cc(Cl)cc(Cl)c3)C[C@@H]42)cc1	inactive	43.8	30.8
COc1ccc(-c2cc(C(=O)N(C)Cc3ccc(OC)c(OC)c3OC)c3ccccc3n2)cc1OC	inactive	13.4	30.9
COc1cccc(N2CCN(CC(=O)Nc3ccccc3C(=O)NCc3ccccc3)CC2)c1	inactive	16.6	35
CC(C)n1nc(C(=O)Oc2cc(Cl)ccc2Cl)c2ccccc2c1=O	inactive	65.8	> 100

Compound	IC50 (PEG-3 [1])	IC50 (PEG-3 [2]; [3]) [µM]	IC50 (PEG-3 [2]; [4]) [µM]
CCOC(=O)c1c(NC(C)=O)sc2c(OCC(O)CN(CC)CC)c(Br)ccc12 (stereo not given)	13.9 µM	20.7	7.1
Cc1ccc(C)c(OCC(O)CN2CCC(CN3C(=O)c4cccc5cccc(c45)C3=O)CC2)c1 (stereo not given)	17.2 µM	18.4	15.9
CC(=O)NC(c1ccc(C)cc1)c1cc(Cl)c2cccnc2c1O (stereo not given)	inactive	3.25	> 100
CC1=NN(c2cccc(C(=O)O)c2)C(=O)/C1=C\C=C/c1ccccc1	14.8 µM	17.7	12
COc1ccc(-c2sc3ccccc3c2-c2ccc(OCCN3CCCCC3)cc2)cc1	inactive	20.9	20.2
O=c1c2c3c(sc2nc(N2CCNCC2)n1CCc1ccccc1)CCCCC3	inactive	32.1	17.4
Cc1cc(C)c2sc(N(CCCN(C)C)C(=O)c3ccc(S(=O)(=O)N(C)C4CCCCC4)cc3)nc2c1	16 µM	18.9	13
N#Cc1ccc(Cn2cc(C=O)c3ccccc32)cc1	inactive	31.6	24.6
CCOc1cc(CNCCO)cc(Br)c1OCc1ccccc1Cl	inactive	41.2	73.4
COc1ccc(C2NCCc3c2[nH]c2ccccc32)cc1COc1ccc(F)cc1 (stereo not given)	12.3 µM	16.9	7.75
COc1ccccc1CNC(=O)c1c(N)n(CCCN2CCOCC2)c2nc3ccccc3nc12	14.1 µM	18.3	9.79
CN(C)c1ccc(C(C(=O)NCc2ccccc2)N(Cc2ccco2)C(=O)c2snc(C(N)=O)c2N)cc1 (stereo not given)	> 100 µM (inactive)	> 100	> 100
COc1ccccc1N1CCN(C(=O)c2sc3ncnc(N4CCN(c5ccccn5)CC4)c3c2C)CC1	inactive	27.6	19.7
COc1ccc(C)cc1Nc1n[n+](-c2ccccc2)c(-c2ccc(N(C)C)cc2)s1	inactive	36.3	65.2
Cc1cc2c(c(/C=C/C(=O)c3ccccc3)c1)OC1(C=C2)Oc2ccccc2C(=O)N1C (stereo not given)	18 µM	20.4	15.5
COc1ccc(N(Cc2cc3cc(OC)ccc3[nH]c2=O)S(=O)(=O)c2ccc(NC(C)=O)cc2)cc1	14.4 µM	17.8	11
Cc1nc(N2CCN(c3ccccc3O)CC2)c2c(-c3ccccc3)csc2n1	inactive	29	24.6
CCOc1cccc2sc(N(CCCN(C)C)C(=O)c3ccc(S(=O)(=O)N(CC)Cc4ccccc4)cc3)nc12	15.4 µM	19.1	11.8
Cc1cc(Br)ccc1NC(=O)CN1C(=O)C2C3CC(c4ccccc4)C(C3)C2C1=O (stereo not given)	inactive	23.9	41.9
COc1ccc(C2c3ccc4ccccc4c3Oc3ncn(CCCO)c(=N)c32)cc1 (stereo not given)	19.9 µM	22.8	17
Cc1ccc(-c2cc(C(=O)Nc3nccs3)c3ccccc3n2)c(C)c1	inactive	32.1	> 100
NC(c1csc(Nc2nccc(C(F)(F)F)n2)n1)C1CCCCC1 (stereo not given)	15.9 µM	19.1	12.8

Compound	IC50 (PEG-3 [1])	IC50 (PEG-3 [2]; [3]) [µM]	IC50 (PEG-3 [2]; [4]) [µM]
CCCCCCSc1cc(-c2nc3ccc(C)cn3c2NCCCC)ccc1OC	16.2 µM	21.4	11
NC(=O)c1nsc(C(=O)N(c2ccccc2F)C(C(=O)NCc2ccccc2)c2ccc(O)cc2)c1N (stereo not given)	inactive	39.4	> 100
O=C(CCCN1C(=O)/C(=C/c2cccc(Br)c2)SC1=S)Nc1cccnc1	13.6 µM	15.1	12.1
COc1cc(/C=C/[N+](=O)[O-])ccc1OC(=O)/C=C/c1ccc(F)cc1	> 100 µM (inactive)	> 100	> 100
CCN1CCN(C(c2ccc(C(F)(F)F)cc2)c2ccc3cccnc3c2O)CC1 (stereo not given)	19.1 µM	21.7	16.5
COc1ccc(-c2cc(C(=O)N3CCN(c4ncccn4)CC3)c3ccccc3n2)c(OC)c1	inactive	39.3	98.5
CCOc1cccc2sc(N(CCCN(C)C)C(=O)c3ccc(S(=O)(=O)N(C)Cc4ccccc4)cc3)nc12	16.6 µM	18.6	14.7
COc1cc2c(cc1OC)CN(c1nc(-c3cccnc3)nc3ccccc13)CC2	inactive	31.3	63.8
c1cc2c3c(cccc3c1)NC1(CCC3(CC1)Nc1cccc4cccc(c14)N3)N2	inactive	18.4	44.7
CC1=CC2OC3CC4OC(=O)C=CC=CC(C(C)O)OCC(O)C(C)CC(=O)OCC2(CC1O)C4(C)C31CO1 (stereo not given)	< 0.2 µM	< 0.2	< 0.2
COc1ccc(/C=C/C(=O)c2ccc3c4c(cccc24)CC3)cc1OC	inactive	31.6	42
Cc1c(CCOC(=O)C23CC4CC(CC(C)(C4)C2)C3)sc[n+]1CC(=O)c1ccccc1	inactive	21.8	21.7
O=S(=O)(c1cccc(F)c1)N1CCN(c2nc(-c3cccnc3)nc3ccccc23)CC1	12.9 µM	10.1	15.8
Nc1c(C(=O)Nc2cccc(C(=O)O)c2)sc2nc3c(cc12)CCCC3	11.2 µM	4.36	18
Cc1ccccc1NC(=O)C(=Cc1ccc(C(=O)O)cc1)C(=O)Nc1ccccc1C	inactive	37.3	74.4
COc1cccc(C(=O)c2sc(NC(C)C)nc2N)c1	15 µM	16.5	13.6
CNC(=O)c1ccsc1NC(=O)c1ccc(S(=O)(=O)N2CCc3ccccc32)cc1	16.5 µM	19.2	13.9
c1ccc(C[C@H]2CNCCN2CCCCC2CCCCC2)cc1	17.5 µM	20.1	14.8
CN(C)CC1CCC/C(=C\c2ccc(OC(=O)/C=C/c3ccccc3)cc2)C1=O (stereo not given)	14.6 µM	21.8	7.3
CCOc1cc(/C=N/N=C(N)N)ccc1OCc1ccc(Cl)cc1	13 µM	16.9	9.05
COc1cccc(CN(C)C(=O)C(CCSC)NS(=O)(=O)c2ccc3c(c2)OCCO3)c1OC (stereo not given)	inactive	61	8.89
